Results reported in US20090136551A1, “Substituted Dicyanoalkanes For Combating Animal Pests” (BASF AKTIENGESELLSCHAFT, priority 2005, published 2009).

Key:
[1] = system: Bird Cherry-Oat Aphid (Rhopalosiphum padi); assay: Activity against bird cherry-oat aphid (sprayed barley leaf disks); format: in vivo; conditions: foliar, 120 h
Description: B.6. Activity Against Bird Cherry-Oat Aphid Aphid (Rhopalosiphum padi)
The active compounds were formulated in 1:3 DMSO:water. Barley leaf disks were placed into microtiterplates filled with 0.8% agar-agar and 2.5 ppm OPUS™. The leaf disks were sprayed with 2.5 μl of the test solution and 5 to 8 adult aphids were placed into the microtiterplates which were then closed and kept at 19-22° C. and 35-45% under fluorescent light for 5 days. Mortality was assessed on the basis of vital, reproduced aphids. Tests were replicated 2 times.

[2] = system: Yellowfever Mosquito (Aedes aegyptii); assay: Activity via glass contact (treated glass vials); format: in vivo; conditions: read-out: mortality against yellowfever mosquito
Source text: B.7. Activity Against Argentine Ant (Linepithema humile), Harvester Ant (Pogonomyrmex californicus), Acrobat Ant (Crematogaster spp.), Carpenter Ant (Camponotus floridanus), Fire Ant (Solenopsis invicta), House Fly (Musca domestica), Stable Fly (Stomoxys calcitrans), Flesh Fly (Sarcophaga sp.), Yellowfever Mosquito (Aedes aegyptii), House Mosquito (Culex quinquefasciatus), Malaria Mosquito (Anopheles albimanus), German Cockroach (Blattella Germanica), Cat Flea (Ctenocephalides felis), and Brown Dog Tick (Rhipicephalus sanguineus) Via Glass Contact
Glass vials were treated with 0.5 ml of a solution of active ingredient in acetone and allowed to dry. Insects or ticks were placed into each vial together with some food and moisture supply.

## N#CC(C#N)(CCC(F)(F)F)Cc1cccc2nsnc12 [I.1, 2-benzo[1,2,5]thiadiazol-4-ylmethyl-2-(3,3,3-trifluoropropyl)-malononitrile]
[1]
  mortality at 300 ppm: > 90%
[2]
  mortality at 10 ppm: > 75%
